Test results: patent US20070286892A1, “COMPOSITIONS AND METHODS FOR PREVENTING OR REDUCING POSTOPERATIVE ILEUS AND GASTRIC STASIS IN MAMMALS” (priority 2006, published 2007)

Legend:
[1] = test system: gastric emptying and intestinal motility; assay: Charcoal transit model of postoperative ileus after abdominal surgery with cecal manipulation; assay type: in vivo, rat; conditions: charcoal distance 4 h after oral meal, percent of full intestinal length, male Sprague Dawley rats
Excerpt: The charcoal transit model is an accetable and established model to study the effects of abdominal surgery on intestinal motility. We followed the procedure as described by De Winter et al. (1997) (Reference: Effect of adrenergic and nitrergic blockade on experimental ileus in rats. British Journal of Pharmacology (1997) 120, 464-468. Benedicte Y. De Winter, Guy E. Boeckxstaens, Joris G. De Man, Tom G. Moreels, Arnold G. Herman & Paul A. Pelckmans). The model simulates the abdominal procedure in human and tests for gastric emptying and intestinal motility by the transfer of a charcoal meal fed to the animals.
Male Sprague Dawley rats, weighing 250-275 g (8 in group) were anesthetized with a xylazine/ketamine cocktail, injected IM, the abdomen was shaved and disinfected with alcohol and Betadyne. A 2.5 cm incision was made from the xyphoid process caudally. The intestinal contents was exteriorized onto wet gauze. The cecum was manipulated gently for 1 minute. The abdominal contents were replaced, the treatment was applied and the body wall closed with 4-0 PDS for the fascia and muscle layers. The skin was closed with wound clips. Treatment groups included two control groups, surgery (incision only) and naïve, and […], high and low dose of Tranilast gel, high and low dose of Tranilast ORC, as well as gel alone and ORC alone. 8 rats were included in each group with a total of 64 rats. The high and low dose Tranilast gel and gel alone treatments were prepared as described in Example 1. The high and low dose Tranilast ORC and ORC alone treatments were prepared as described in Example 2.
The rats were treated with an oral solution of charcoal (10%) in acacia gum (2%). Four hours following oral administration rats were euthanized with Euthasole. The intestines were exteriorized and the distance traveled by the charcoal meal was measured as well as the full length of the intestines (from the pylorus through the anus). Results are expressed as percent of distance traveled relative to the full length of the intestines.

adhesions = conditions: local delivery in gel (NaCMC) formulations at the surgical site; cited from earlier work

## COc1ccc(/C=C/C(=O)Nc2ccccc2C(=O)O)cc1OC [Tranilast]
[1]; Gel preparation (3% Na-CMC), Tranilast high dose 18.0 mg applied locally
  % GI Transfer: 93.04%
[1]; Gel preparation (3% Na-CMC), Tranilast low dose 1.8 mg applied locally
  % GI Transfer: 90.68%
[1]; ORC preparation (INTERCEED mesh), Tranilast high dose 18.0 mg applied locally
  % GI Transfer: 62.18%
[1]; ORC preparation (INTERCEED mesh), Tranilast low dose 1.8 mg applied locally
  % GI Transfer: 46.11%
adhesions
  Effects on wound healing at the surgical sites: no obvious effects on wound healing
